Reference: patent US20200115412A1, “SEPARATION OF VANCOMYCIN AND ITS DEGRADATION PRODUCTS” (SAVARA INC., priority 2018, published 2020)
Counter-ions that a name gives are not always drawn. Like-named read-outs stand apart in the source and are kept apart here.

Legend:
[1] = Impurities in AeroVanc vancomycin powder stored for three months at 5° C. and 25° C., improved HPLC impurity method; assay type: physicochemical
Description: Calculate the concentration of each individual impurity in samples 1A, 2A and 3A, as follows:
Where: • I %i=Impurity concentration in sample 1A, 2A or 3A (as percentage) • 10=Dilution factor (50 mL/5.0 mL) • CV=Vancomycin concentration in sample solutions 1B, 2B or 3B (μg/mL) • Ci=Concentration of impurity in sample solution 1A, 2A or 3A (μg/mL) • Ci,total=Total concentration of impurities in sample solutions 1A, 2A or 3A
The method disclosed herein was also applied to the determination of degradation products of AeroVanc vancomycin powder stored for three months at 5° C. and 25° C.

[2] = Impurity profiles of vancomycin degraded in solution and solid state (FIG. 22); assay type: physicochemical
Description: The method disclosed herein was successfully applied to the determination of degradation products of vancomycin in the solution and solid states.

[3] = background statement; cited from earlier work
[4] = Stated stability and handling properties; assay type: physicochemical; details: reference standards handling
Description: Vancomycin is a potent antibiotic reserved for serious drug-resistant bacterial infections including intravenous infusion for complicated infection (including MRSA) and oral administration for severe gastro-intestinal (GI) infections caused by Clostridium difficile. It was first isolated from soil bacterium (Amycolatopis orientalis) by Kornfeld in 1953, and first commercialized by Eli Lilly in 1954. Vancomycin, which is listed on the WHO's List of Essential Medicines, is a complex glycopeptide derived from N. orientalis with significant analytical challenges, including the presence of at least 12 identified impurities and a greater number of unknown impurities. […] Vancomycin has six ionizable groups and some of the impurities have seven. It is difficult to handle (high surface energy) and difficult to formulate. AeroVanc is a dry-powder inhalation product (DPI) under development for the treatment of methicillin resistant S. aureus (MRSA) infections in the lungs of cystic fibrosis patients. AeroVanc (vancomycin hydrochloride inhalation powder) contains the antibiotic and a single excipient, L-leucine. AeroVanc comprises a dry powder formulation which is delivered to the lungs by oral inhalation using a unit dose delivery device.

[5] = AeroVanc vancomycin powder stored three months at 5° C.
[6] = AeroVanc vancomycin powder stored three months at 25° C.

Monodechloro-(6)-vancomycin [Mono-dechloro-(6)]
Impurity (%) [1, 5]: 0.679% | Impurity (%) [1, 6]: 0.671%

De-((L-asn)-L-gln-vancomycin (EP Impurity B) [De-(L-Asn)-L-Gln]
Impurity (%) [1, 5]: 0.152% | Impurity (%) [1, 6]: 0.151%

Epi-(26R)-vancomycin [Epi-26(R)]
Impurity (%) [1, 5]: 0.610% | Impurity (%) [1, 6]: 0.628%

Monodechloro-(2)-vancomycin
Impurity (%) [1, 5]: 0.069% | Impurity (%) [1, 6]: 0.072%

Agluco-vancomycin (EP Impurity C)
Impurity (%) [1, 5]: 0.139% | Impurity (%) [1, 6]: 0.163%

Cis-chloro-(2)-vancomycin
Impurity (%) [1, 5]: 0.194% | Impurity (%) [1, 6]: 0.200%

CC(C)C[C@@H](N)C(=O)N[C@H]1C(=O)N[C@@H](CC(N)=O)C(=O)N[C@H]2C(=O)N[C@H]3C(=O)N[C@H](C(=O)N[C@H](C(=O)O)c4cc(O)cc(O)c4-c4cc3ccc4O)[C@H](O)c3ccc(c(Cl)c3)Oc3cc2cc(c3O[C@@H]2O[C@H](CO)[C@@H](O)[C@H](O)[C@H]2O[C@H]2C[C@](C)(N)[C@H](O)[C@H](C)O2)Oc2ccc(cc2Cl)[C@H]1O [N-demethyl, N-demethyl-vancomycin (EP Impurity A)]
Impurity (%) [1, 5]: 1.757% | Impurity (%) [1, 6]: 1.722%

Desvancosamino-vancomycin (EP Impurity D) [Des-vancosamino]
Impurity (%) [1, 5]: 0.343% | Impurity (%) [1, 6]: 0.398%

Des-(amido)-succinimido- vancomycin [Des-amido-succinimido]
Impurity (%) [1, 5]: 0.577% | Impurity (%) [1, 6]: 0.759%

Des-(amido)-aspartyl-vancomycin (CDP-1 minor) [CDP-1minor]
Impurity (%) [1, 5]: 0.017% | Impurity (%) [1, 6]: 0.026%

CN[C@H](CC(C)C)C(=O)N[C@H]1C(=O)N[C@@H](CC(N)=O)C(=O)N[C@H]2C(=O)N[C@H]3C(=O)N[C@H](C(=O)N[C@H](C(=O)O)c4cc(O)cc(O)c4-c4cc3ccc4O)[C@H](O)c3ccc(c(Cl)c3)Oc3cc2cc(c3O[C@@H]2O[C@H](CO)[C@@H](O)[C@H](O)[C@H]2O[C@H]2C[C@](C)(N)[C@H](O)[C@H](C)O2)Oc2ccc(cc2Cl)[C@H]1O [Vancomycin]
impurity profile of degraded vancomycin ([2]; degraded in aqueous solution, compared to the degraded solid): larger amounts of CDP-1 Minor, CPD-1 Major and additional unknowns | impurity profile of degraded vancomycin ([2]; degraded solid, compared to the degraded aqueous solution): increased desamido-succinimide vancomycin and agluco vancomycin | net charge (at high pH): −4 | net charge (at low pH): +2 | net charge (plateau region between pH 3.5 and 5.5): +1 | stability at room temperature [3]: unstable at room temperature

CN[C@H](CC(C)C)C(=O)N[C@H]1C(=O)N[C@@H](CC(N)=O)C(=O)N[C@H]2C(=O)N[C@H]3C(=O)N[C@H](C(=O)N[C@H](C(=O)O)c4cc(O)cc(O)c4-c4cc3ccc4O)[C@H](O)c3ccc(c(Cl)c3)Oc3cc2cc(c3O[C@@H]2O[C@H](CO)[C@@H](O)[C@H](O)[C@H]2O[C@H]2C[C@](C)(N)[C@H](O)[C@H](C)O2)Oc2ccc(cc2Cl)[C@H]1O [Vancomycin HCl, vancomycin hydrochloride]
light sensitivity and hygroscopicity [4]: light sensitive and hygroscopic

CC(C)C[C@H](C(=O)N[C@H]1C(=O)N[C@@H](CC(N)=O)C(=O)N[C@H]2C(=O)NC3C(=O)N[C@H](C(=O)N[C@H](C(=O)O)c4cc(O)cc(O)c4-c4cc3ccc4O)[C@H](O)c3ccc(c(Cl)c3)Oc3cc2cc(c3O[C@@H]2OC(CO)C(O)C(O)[C@H]2O[C@H]2C[C@](C)(N)[C@H](O)[C@H](C)O2)Oc2ccc(cc2Cl)[C@H]1O)N(C)C (some centres unmarked) [N-methyl, N-methyl-vancomycin]
Impurity (%) [1, 5]: 0.019% | Impurity (%) [1, 6]: 0.027%
